A word on the IC50: it is the concentration needed to halve the response being measured.

These results are taken from patent US20240158394A1, “NEK7 INHIBITORS” (Halia Therapeutics, Inc., priority 2022, published 2024).

Chain of full-length recombinant human NEK7 (Q8TDX7 whole entry): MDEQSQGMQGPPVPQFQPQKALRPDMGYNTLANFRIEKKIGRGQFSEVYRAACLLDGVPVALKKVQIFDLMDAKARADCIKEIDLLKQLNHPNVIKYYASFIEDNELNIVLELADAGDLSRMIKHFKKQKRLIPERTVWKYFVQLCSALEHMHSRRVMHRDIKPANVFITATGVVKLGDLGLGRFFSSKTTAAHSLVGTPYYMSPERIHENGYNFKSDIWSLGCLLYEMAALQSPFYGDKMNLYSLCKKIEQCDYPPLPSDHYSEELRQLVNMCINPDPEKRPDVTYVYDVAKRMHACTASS

The test addresses full-length recombinant human NEK7 (Homo sapiens (Human), UniProt Q8TDX7). The test is described as follows: NEK7 Enzymatic Assay. It counts as biochemical. The note with it: casein substrate, [33P]-ATP, 2 hours at room temperature. The protocol:
Casein substrate (from bovine milk, hydrolyzed and partially dephosphorylated mixture of α, β and κ caseins, obtained from Sigma Aldrich, catalogue #C4765, diluted in distilled water to a final concentration of 1 mg/mL) and full-length recombinant human NEK7 (expressed by baculovirus in Sf9 insect cells using a N-terminal GST tag, obtained from SignalChem, catalogue #N09-10G, 0.1 μg/μL) were mixed in assay buffer (20 mM HEPES pH 7.5, 10 mM MgCl2, 1 mM EGTA, 0.02% Brij35, 0.02 mg/mL BSA, 0.1 mM Na3VO4, 2 mM DTT, 1% DMSO). Compounds of interest (serial 3-fold dilution in DMSO from 10 μM to 0.5 nM) or vehicle (1% DMSO) were dispensed into the kinase reaction mixture by Acoustic technology (Echo550; nanoliter range). After incubation at room temperature for 20 minutes, the kinase reaction was initiated by addition of [^33P]-ATP (specific activity 10 μCi/μL) and the mixture was incubated at room temperature for 2 hours. The reaction was then stopped by spotting the reaction mixture on strips of phosphocellulose P81 paper. Following washing, the radioactivity of the P81 paper was measured and kinase activity data were expressed as the percent remaining kinase activity in test samples compared to vehicle reactions. IC50 values and curve fits were obtained using Prism (GraphPad Software).
With `Nc1ncnc2c1c(-c1ccc(NC(=O)Nc3cc(C4(C(F)(F)F)CC4)no3)c3ccccc13)cn2C1CC1` [Example I-1, 1-(4-(4-amino-7-cyclopropyl-7H-pyrrolo[2,3-d]pyrimidin-5-yl)naphthalen-1-yl)-3-(3-(1-(trifluoromethyl)cyclopropyl)-isoxazol-5-yl)urea], the IC50 is over 2000 nM.

For `CC(C)(C)c1cc(NC(=O)Nc2ccc(-c3cn(C4CC4)c4ncnc(N)c34)c3cccnc23)on1` [Example I-2, 1-(5-(4-amino-7-cyclopropyl-7H-pyrrolo[2,3-d]pyrimidin-5-yl)quinolin-8-yl)-3-(3-(tert-butyl)isoxazol-5-yl)urea], the 50% inhibitory concentration (IC50) was over 2000 nM.

In the case of `Nc1ncnc2c1c(-c1ccc(NC(=O)Nc3cc(C4(C(F)(F)F)CC4)no3)c3ncccc13)cn2C1CC1` [Example I-3, 1-(5-(4-amino-7-cyclopropyl-7H-pyrrolo[2,3-d]pyrimidin-5-yl)quinolin-8-yl)-3-(3-(1-(trifluoromethyl)cyclopropyl)-isoxazol-5-yl)urea], the IC50 is over 2000 nM.

For `CC(C)(C)c1cc(NC(=O)Nc2ccc(-c3cn(C4CC4)c4ncnc(N)c34)c3ccncc23)on1` [Example I-5, 1-(5-(4-amino-7-cyclopropyl-7H-pyrrolo[2,3-d]pyrimidin-5-yl)isoquinolin-8-yl)-3-(3-(tert-butyl)isoxazol-5-yl)urea], the IC50 is under 200 nM.

Turning to `CC1(c2cc(NC(=O)Nc3ccc(-c4cn(C5CC5)c5ncnc(N)c45)c4ccncc34)on2)CC1` [Example I-6, 1-(5-(4-amino-7-cyclopropyl-7H-pyrrolo[2,3-d]pyrimidin-5-yl)isoquinolin-8-yl)-3-(3-(1-methylcyclopropyl)isoxazol-5-yl)urea], the half-maximal inhibitory concentration (IC50) lay in the range of 200 to 500 nM.

Consider `Nc1ncnc2c1c(-c1ccc(NC(=O)Nc3cc(C4(C(F)(F)F)CC4)no3)c3cnccc13)cn2C1CC1` [Example I-7, 1-(5-(4-amino-7-cyclopropyl-7H-pyrrolo[2,3-d]pyrimidin-5-yl)isoquinolin-8-yl)-3-(3-(1-(trifluoromethyl)cyclopropyl)-isoxazol-5-yl)urea], for which the half-inhibitory concentration (IC50) is 500 to 2000 nM.

Consider `CN1CCC(Oc2ccc(NC(=O)Nc3ccc(-c4cn(C5CC5)c5ncnc(N)c45)c4ccncc34)cc2C(F)(F)F)CC1` [Example I-10, 1-(5-(4-amino-7-cyclopropyl-7H-pyrrolo[2,3-d]pyrimidin-5-yl)isoquinolin-8-yl)-3-(4-((1-methylpiperidin-4-yl)oxy)-3-(trifluoromethyl)phenyl)urea], for which the IC50 was under 200 nM.

Regarding `Cc1ccc(-n2nc(C(C)(C)C)cc2NC(=O)Nc2ccc(-c3cn(C4CC4)c4ncnc(N)c34)n3ccnc23)cc1` [Example I-12, 1-(5-(4-amino-7-cyclopropyl-7H-pyrrolo[2,3-d]pyrimidin-5-yl)imidazo[1,2-a]pyridin-8-yl)-3-(3-(tert-butyl)-1-(p-tolyl)-1H-pyrazol-5-yl)urea], the IC50 lay in the range of 200 to 500 nM.

For the compound `CC(C)(C)c1cc(NC(=O)Nc2ccc(-c3cn(C4CC4)c4ncnc(N)c34)n3ccnc23)n(-c2ccc(Cl)cc2)n1` [Example I-13, 1-(5-(4-amino-7-cyclopropyl-7H-pyrrolo[2,3-d]pyrimidin-5-yl)imidazo[1,2-a]pyridin-8-yl)-3-(3-(tert-butyl)-1-(4-chlorophenyl)-1H-pyrazol-5-yl)urea], the IC50 lay within 500 to 2000 nM.

On to `Cc1cc(NC(=O)Nc2ccc(-c3cn(C4CC4)c4ncnc(N)c34)n3ccnc23)on1` [Example I-14, 1-(5-(4-amino-7-cyclopropyl-7H-pyrrolo[2,3-d]pyrimidin-5-yl)imidazo[1,2-a]pyridin-8-yl)-3-(3-methylisoxazol-5-yl)-urea], for which the 50% inhibitory concentration (IC50) was over 2000 nM.

Consider `CCc1cc(NC(=O)Nc2ccc(-c3cn(C4CC4)c4ncnc(N)c34)n3ccnc23)on1` [Example I-15, 1-(5-(4-amino-7-cyclopropyl-7H-pyrrolo[2,3-d]pyrimidin-5-yl)imidazo[1,2-a]pyridin-8-yl)-3-(3-ethylisoxazol-5-yl)-urea], for which the IC50 lay within 200 to 500 nM.

In the case of `CC(C)c1cc(NC(=O)Nc2ccc(-c3cn(C4CC4)c4ncnc(N)c34)n3ccnc23)on1` [Example I-16, 1-(5-(4-amino-7-cyclopropyl-7H-pyrrolo[2,3-d]pyrimidin-5-yl)imidazo[1,2-a]pyridin-8-yl)-3-(3-isopropylisoxazol-5-yl)urea], the IC50 was under 200 nM.

As to `CC1(c2cc(NC(=O)Nc3ccc(-c4cn(C5CC5)c5ncnc(N)c45)n4ccnc34)on2)CC1` [Example I-18, 1-(5-(4-amino-7-cyclopropyl-7H-pyrrolo[2,3-d]pyrimidin-5-yl)imidazo[1,2-a]pyridin-8-yl)-3-(3-(1-methylcyclo-propyl)isoxazol-5-yl)urea], the 50% inhibitory concentration (IC50) is under 200 nM.

In the case of `CC1(c2cc(NC(=O)Nc3ccc(-c4cn(C5CC5)c5ncnc(N)c45)n4ccnc34)on2)CCC1` [Example I-19, 1-(5-(4-amino-7-cyclopropyl-7H-pyrrolo[2,3-d]pyrimidin-5-yl)imidazo[1,2-a]pyridin-8-yl)-3-(3-(1-methylcyclobutyl)-isoxazol-5-yl)urea], the IC50 lay within 200 to 500 nM.

With `CC(C)(F)c1cc(NC(=O)Nc2ccc(-c3cn(C4CC4)c4ncnc(N)c34)n3ccnc23)on1` [Example I-20, 1-(5-(4-amino-7-cyclopropyl-7H-pyrrolo[2,3-d]pyrimidin-5-yl)imidazo[1,2-a]pyridin-8-yl)-3-(3-(2-fluoropropan-2-yl)isoxazol-5-yl)urea], the concentration for half-maximal inhibition (IC50) is under 200 nM.

In the case of `CC(C)(c1cc(NC(=O)Nc2ccc(-c3cn(C4CC4)c4ncnc(N)c34)n3ccnc23)on1)C(F)(F)F` [Example I-21, 1-(5-(4-amino-7-cyclopropyl-7H-pyrrolo[2,3-d]pyrimidin-5-yl)imidazo[1,2-a]pyridin-8-yl)-3-(3-(1,1,1-trifluoro-2-methylpropan-2-yl)isoxazol-5-yl)urea], the IC50 is under 200 nM.

Consider `Nc1ncnc2c1c(-c1ccc(NC(=O)Nc3cc(C4(C(F)(F)F)CCC4)no3)c3nccn13)cn2C1CC1` [Example I-23, 1-(5-(4-amino-7-cyclopropyl-7H-pyrrolo[2,3-d]pyrimidin-5-yl)imidazo[1,2-a]pyridin-8-yl)-3-(3-(1-(trifluoromethyl)-cyclobutyl)isoxazol-5-yl)urea], for which the IC50 is under 200 nM.

For the compound `Cc1cc(NC(=O)Nc2ccc(-c3cn(C4CC4)c4ncnc(N)c34)n3ccnc23)no1` [Example I-24, 1-(5-(4-amino-7-cyclopropyl-7H-pyrrolo[2,3-d]pyrimidin-5-yl)imidazo[1,2-a]pyridin-8-yl)-3-(5-methylisoxazol-3-yl)urea], the IC50 was over 2000 nM.

Regarding `CC(C)c1cc(NC(=O)Nc2ccc(-c3cn(C4CC4)c4ncnc(N)c34)n3ccnc23)no1` [Example I-26, 1-(5-(4-amino-7-cyclopropyl-7H-pyrrolo[2,3-d]pyrimidin-5-yl)imidazo[1,2-a]pyridin-8-yl)-3-(5-isopropylisoxazol-3-yl)urea], the IC50 was in the range of 200 to 500 nM.

In the case of `CC(C)(C)c1cc(NC(=O)Nc2ccc(-c3cn(C4CC4)c4ncnc(N)c34)n3ccnc23)no1` [Example I-27, 1-(5-(4-amino-7-cyclopropyl-7H-pyrrolo[2,3-d]pyrimidin-5-yl)imidazo[1,2-a]pyridin-8-yl)-3-(5-(tert-butyl)isoxazol-3-yl)urea], the IC50 was under 200 nM.

For the compound `CC(C)(c1cc(NC(=O)Nc2ccc(-c3cn(C4CC4)c4ncnc(N)c34)n3ccnc23)no1)C(F)(F)F` [Example I-31, 1-(5-(4-amino-7-cyclopropyl-7H-pyrrolo[2,3-d]pyrimidin-5-yl)imidazo[1,2-a]pyridin-8-yl)-3-(5-(1,1,1-trifluoro-2-methylpropan-2-yl)isoxazol-3-yl)urea], the 50% inhibitory concentration (IC50) was under 200 nM.

In the case of `Nc1ncnc2c1c(-c1ccc(NC(=O)Nc3cc(C4(C(F)(F)F)CCC4)on3)c3nccn13)cn2C1CC1` [Example I-33, 1-(5-(4-amino-7-cyclopropyl-7H-pyrrolo[2,3-d]pyrimidin-5-yl)imidazo[1,2-a]pyridin-8-yl)-3-(5-(1-(trifluoromethyl)-cyclobutyl)isoxazol-3-yl)urea], the half-inhibitory concentration (IC50) lay in the range of 200 to 500 nM.

`CCN1CCN(Cc2ccc(NC(=O)Nc3ccc(-c4cn(C5CC5)c5ncnc(N)c45)n4ccnc34)cc2C(F)(F)F)CC1` [Example I-35, 1-(5-(4-amino-7-cyclopropyl-7H-pyrrolo[2,3-d]pyrimidin-5-yl)imidazo[1,2-a]pyridin-8-yl)-3-(4-((4-ethylpiperazin-1-yl)methyl)-3-(trifluorometh-yl)phenyl)urea]: the IC50 is under 200 nM.

Consider `CN1CCN(Cc2cc(NC(=O)Nc3ccc(-c4cn(C5CC5)c5ncnc(N)c45)n4ccnc34)cc(C(F)(F)F)c2)CC1` [Example I-36, 1-(5-(4-amino-7-cyclopropyl-7H-pyrrolo[2,3-d]pyrimidin-5-yl)imidazo[1,2-a]pyridin-8-yl)-3-(3-((4-methylpiperazin-1-yl)methyl)-5-(trifluorometh-yl)phenyl)urea], for which the half-maximal inhibitory concentration (IC50) was under 200 nM.

In the case of `CCN1CCC(Oc2ccc(NC(=O)Nc3ccc(-c4cn(C5CC5)c5ncnc(N)c45)n4ccnc34)cc2C(F)(F)F)CC1` [Example I-38, 1-(5-(4-amino-7-cyclopropyl-7H-pyrrolo[2,3-d]pyrimidin-5-yl)imidazo[1,2-a]pyridin-8-yl)-3-(4-((1-ethylpiperidin-4-yl)oxy)-3-(trifluoromethyl)-phenyl)urea], the IC50 was under 200 nM.
